Measurements as given in paper PMC3609778, “Truncated and Helix-Constrained Peptides with High Affinity and Specificity for the cFos Coiled-Coil of AP-1” (PLoS ONE, 2013).
Where a SMILES comes first, the peptide text is derived from it. Bridges are numbered along the chain shown (N, C = ends). [ ]: non-standard residue; d: D form. Cha = N[C@@H](CC1CCCCC1)C(=O)O

Legend:
cFos [1] = biological target: T1, cFos (Homo sapiens, UniProt P01100); experiment: Thermal denaturation (CD at 222 nm) of peptide-cFos mixtures; type: binding; conditions: judged from thermal denaturation profiles and CD spectra of mixtures with cFos
T1 sequence (P01100 whole entry): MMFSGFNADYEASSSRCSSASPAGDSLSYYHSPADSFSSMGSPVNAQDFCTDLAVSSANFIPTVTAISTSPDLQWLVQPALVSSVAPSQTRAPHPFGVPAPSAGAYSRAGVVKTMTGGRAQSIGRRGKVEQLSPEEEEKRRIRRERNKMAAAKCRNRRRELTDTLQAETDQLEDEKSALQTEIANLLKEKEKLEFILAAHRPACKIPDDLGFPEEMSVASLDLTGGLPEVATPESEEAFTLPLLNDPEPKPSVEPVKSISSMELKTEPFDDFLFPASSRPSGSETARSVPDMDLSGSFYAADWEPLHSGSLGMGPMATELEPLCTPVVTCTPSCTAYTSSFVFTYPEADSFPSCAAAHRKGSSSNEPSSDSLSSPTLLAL
Description: (§1) Thermal denaturation data and spectra for the cFos homotypic complex (black), helix constrained peptide (blue), and heteromeric complex (red) were recorded using 200 µL of sample at 150µM total peptide concentration (Figure 4, Figure S1). Next, 100 µL of each solution was mixed and the spectra taken such that the final total peptide concentration was also 150 µM. More experimental procedures can be found in File S1.

cFos [2] = biological target: T1, cFos; experiment: Circular dichroism spectra of peptide-cFos mixtures; type: binding; conditions: mixture with cFos
Description: (§2) Circular dichroism (CD) spectroscopy was conducted with an Applied Photophysics Chirascan CD spectroploarimeter (Leatherhead, U.K.) using a 200 µL sample in a CD cell with a 1 mm path length (Hellma, Müllheim Germany). Samples contained 150 µM total peptide concentration suspended in 10 mM potassium phosphate and 100 mM potassium fluoride at pH 7. The CD spectra of the homodimeric and heterodimeric complexes were scanned between 300 nm and 190 nm at 20°C (for both pre- and post-melt samples to check for reversibility of unfolding) and at −8°C to assess helical levels and coiled-coil structure (see Figure 4).
as §1
(§3) Supplementary file pone.0059415.s005.doc: Table S1 Helical Data obtained via Circular Dichroism. Shown are A) homo and B) heteromeric samples. […] A ratio higher than 1 is generally indicated evidence that a coiled coil has formed, while a ratio of less than 0.9 is taken to indicate the presence of isolated helices. Shown in column two are the calculated fractional helicities taken from the Molar Residue Ellipticity at […]. Fraction helicity (ƒH) can be calculated as ƒH = (θ222−θc)/(θ222∞−θc) where θ222∞ = (−44000+250*T)*(1−k/Nr) and θc = 2220–(53*T). In these equations the wavelength dependent constant k = 2.4 (at 222 nm), Nr = the number of residues, and T = 20 degrees Celsius (293 K). The 222/208 ratio is used to provide evidence on whether the helices are monomeric or are adopting a quaternary structure. Measured helicity for the original JunWCANDI peptide and for the template on which the hydrocarbon constraints have been introduced. […] The N- and C-capping motifs have been removed for the constrained since they are considered to be largely redundant upon their introduction. (DOC) Click here for additional data file.

[3] = Circular dichroism helicity of peptide in isolation (homotypic); type: physicochemical; conditions: peptide in isolation
Description: as §2, §3

cJun = experiment: CD spectra and thermal denaturation of peptide-cJun mixtures (specificity); type: binding; conditions: equimolar with cJun
Description: To establish if the truncated and constrained peptides retained the interaction specificity of the JunWCANDI parent peptide, peptides capable of interacting with cFos were also incubated at equimolar concentrations with cJun and monitored via CD spectra. […] In addition, a dimer exchange experiment was performed for the most helical peptide 24. Spectra for a cJun-peptide solution and a cFos solution should, upon mixing, generate an averaged spectrum if there was no dimer exchange. […] Spectra for both mixtures can be superimposed (Figure S4).
Supplementary file pone.0059415.s002.tiff: Figure S2 Raw thermal melting data for homo and heterodimeric complexes with cJun for constrained peptides 1 , 2 , 8 , 9, 10 , 11, 12, 17, 20, 22, and 24 . […] (TIFF) Click here for additional data file.
Supplementary file pone.0059415.s003.tiff: Figure S3 CD spectra as MRE both in isolation and as a mixture with cJun. From these raw data it is also clear that no interaction is occurring between constrained peptides and cJun. Rather, specta appear as averages of their homodimeric components (i.e. superimpose with the homomeric averages). We observe no heteromeric helical signal (red) that exceeds the average (black dotted line) of cJun (black) and the constrained peptide (blue), that would be anticipated for a non-interacting pair. (TIFF) Click here for additional data file.
Supplementary file pone.0059415.s005.doc: Table S1 Helical Data obtained via Circular Dichroism. Shown are A) homo and B) heteromeric samples. […] A ratio higher than 1 is generally indicated evidence that a coiled coil has formed, while a ratio of less than 0.9 is taken to indicate the presence of isolated helices. Shown in column two are the calculated fractional helicities taken from the Molar Residue Ellipticity at […]. Fraction helicity (ƒH) can be calculated as ƒH = (θ222−θc)/(θ222∞−θc) where θ222∞ = (−44000+250*T)*(1−k/Nr) and θc = 2220–(53*T). […] Measured helicity for the original JunWCANDI peptide and for the template on which the hydrocarbon constraints have been introduced. […]

Peptide-cFos Ɵ222/208 (20ºC) (cFos [2]; CD ratio, 20 °C): 0.92
Peptide-cFos Fraction helical (ƒH) (cFos [2]; CD 222 nm, 20°C, 150 µM total peptide): 0.49
Homotypic Ɵ222/208 (20ºC) ([3]; CD ratio, 20 °C): 0.91
Fraction helical (ƒH), homotypic ([3]; from CD molar residue ellipticity at 222 nm, 20°C, 150 µM, pH 7): 0.51
SMILES: CC[C@H](C)[C@H](NC(=O)[C@H](Cc1c[nH]cn1)NC(=O)[C@@H]1CC(=O)NCCCC[C@H](NC(=O)[C@H](C)NC(=O)[C@H](CCCCN)NC(=O)[C@H](CO)NC(=O)[C@H](CCCNC(=N)N)NC(=O)[C@H](CC(C)C)NC(=O)[C@@H]2CC(=O)NCCCC[C@H](NC(=O)[C@H](CCCCN)NC(=O)[C@H](CC3CCCCC3)NC(C)=O)C(=O)N[C@@H](CCC(=O)O)C(=O)N[C@@H]([C@@H](C)CC)C(=O)N[C@@H](Cc3ccc(O)cc3)C(=O)N2)C(=O)N[C@@H](CCSC)C(=O)N[C@@H](CC(C)C)C(=O)N[C@@H](CCCNC(=N)N)C(=O)N1)C(=O)N[C@@H](C)C(=O)N[C@@H](CCC(N)=O)C(=O)N[C@@H](CC1CCCCC1)C(N)=O [compound 20] (Ac-[Cha]KKEIYDLRSKAKMLRDHIAQ[Cha]-NH2; lactam 3-7, 13-17)
interaction with cFos (in words) (cFos [1]): profiles consistent with a strong interaction affinity for cFos
interaction with cJun (in words) (cJun): none of the peptides form a stable interaction with cJun
